From ChEMBL document CHEMBL3861976, “Phthalide Derivatives with Anticoagulation Activities from Angelica sinensis” (J Nat Prod, 2016)
Active and inactive are the calls of the source. The calls are words filed in the database; no cut-off is given here.

Columns and labels:
Format in all cases: functional, cell-free
Oryctolagus cuniculus [1] = organism: Oryctolagus cuniculus; assay: Anticoagulant activity in New Zealand White rabbit plasma assessed as prolongation of activated partial thromboplastin time at 1 mM after 1 min
Oryctolagus cuniculus [2] = organism: Oryctolagus cuniculus; assay: Anticoagulant activity in New Zealand White rabbit plasma assessed as prolongation of thrombin time at 1 mM incubated for 3 mins followed by thrombin addition
Oryctolagus cuniculus [3] = organism: Oryctolagus cuniculus; assay: Anticoagulant activity in New Zealand White rabbit plasma assessed as decrease in fibrinogen level at 1 mM after 3 mins

Structure (SMILES)	Activity (Oryctolagus cuniculus [1])	Activity (Oryctolagus cuniculus [2])	Activity (Oryctolagus cuniculus [3])
CCCCC(=O)[C@]12CC[C@H](C=C1C(=O)OC)[C@@H](CCC)[C@@]21OC(=O)C2=C[C@H]3CC[C@]21OO3	Active	Active	Active
CCC/C=C1\OC(=O)C2=C1CC[C@@H]1[C@@H]3CCC4=C(C(=O)OC45[C@H](CCC)[C@@H](CCC)[C@@]54OC(=O)C5=C4CCC=C5)[C@@H]3[C@H]21 (some centres undefined)			Active
